# Assay results taken from PMC5882637, “Ethanol potentiates the genotoxicity of the food-derived mammary carcinogen PhIP in human estrogen receptor-positive mammary cells: mechanistic support for lifestyle factors (cooked red meat and ethanol) associated with mammary cancer” (Archives of Toxicology, 2018).
# What was measured:
# [1] = tested on: CYP1A2 mRNA expression; assay: RT-qPCR CYP1A2 mRNA, MDA-MB-231; conditions: Fig. 2c; for CYP1A2 mRNA expression vs vehicle control: 24 h, E2 1 µM
# Method: (§1) Cells were cultured routinely in 75-cm^2 flasks in a humidified incubator at 37 °C, 5% CO2.
# (§2) Following treatment, cells were lysed using TRIZOL reagent and chloroform (0.2 ml) was added in each sample and centrifuged 12,000xg (10 min 2–8 °C). The upper aqueous phase was transferred to a fresh tube and 5 µg of RNase-free glycogen (as carrier to aqueous phase) and 0.5 ml of isopropyl alcohol was added to precipitate RNA and incubated (37 °C, 10 min). Following incubation, lysates were centrifuged at 12,000xg (10 min 2–8 °C). The gel-like pellet was washed with ethanol and re-dissolved in RNase-free water with heating (55–60 °C). Extracted RNA was quantified by UV spectroscopy (UV–VIS Nano-spectrophotometer, Implen, Essex, UK) and purity was assessed from 260/280 nm and 260/230 nm ratios. Reverse transcription (RT) of extracted RNA (100–500 ng) was completed according to manufacturer’s protocol (Invitrogen) and qPCR was performed using predesigned Taqman gene expression assays and FAST PCR master mix (Taqman, Applied Biosystems, Life technologies) using a StepOnePlus fast real-time PCR system (Applied Biosystems, Life technologies). Target gene expression was normalized to GAPDH and quantified using the delta-Ct method (Livak and Schmittgen [2001]).
# [2] = tested on: CYP2E1 mRNA expression; assay: RT-qPCR CYP2E1 mRNA, MDA-MB-231; format: cell-based, human; conditions: PhIP treatment, Fig. 3a
# Method: as §1, §2
# [3] = tested on: MDA-MB-231 cells; assay: Cytotoxicity (cell counting, TrypanBlue exclusion), MDA-MB-231; conditions: for change in cell survival following treatment: Fig. 1b
# Method: as §1
# (§3) Briefly, cells were seeded at a density of 5 × 10^4 cells per well in 24-well plate. Cells were treated with PhIP or ethanol as detailed previously. Following treatment with chemicals and harvesting (48 h), cells were trypsinised, the cell concentration adjusted to 2 × 10^5 and re-suspended in serum-free R0 (serum-free media) with 2% pluronic acid medium (GIBCO, Life technologies) and cytotoxicity was determined by counting cells in a haemocytometer with TrypanBlue exclusion (GIBCO, Life technologies). For the MN assay, cells were spread on a microscope slide using a cytospin. Cells at a density of 2 × 10^4 cells per slide were fixed with 100% methanol and stained for 60 s with acridine orange (0.1 mg ml^−1 dissolved in PBS, Sigma-Aldrich). Frequency of MN was scored in 2000 cells per sample and three biological replicates were performed per treatment.
# [4] = tested on: CYP1A1; assay: RT-qPCR CYP1A1 mRNA, MCF-7; format: cell-based, human; conditions: data not shown
# Method: as §1, §2
# [5] = tested on: STAT3 mRNA expression; assay: qPCR STAT3 mRNA, MCF-7; format: cell-based, human
# Method: as §1, §2
# [6] = tested on: CYP1B1 mRNA expression; assay: RT-qPCR CYP1B1 mRNA, MDA-MB-231; conditions: 24 h
# Method: as §1, §2
# [7] = tested on: CYP2E1 mRNA expression; assay: RT-qPCR CYP2E1 mRNA, MCF-7
# Method: as §1
# For STAT3 inhibition, cells were co-treated for 24 h with PhIP and 25 µM STAT3 inhibitor (STAT3 inhibitor VIII 5, 15 diphenylporphyrin, Millipore, Feltham, UK). STAT3 inhibitor was dissolved in DMSO. For ethanol treatment, media was supplemented with different concentrations of ethanol (10 mM-100 mM, Sigma-Aldrich) and was added to the cells. In some experiments, N-acetyl-cysteine (NAC) (10 mM, Sigma-Aldrich) diluted in phosphate-buffered saline (PBS) was added to incubations.
# as §2
# [8] = tested on: MCF-7 cells; assay: Micronucleus (MN) assay, MCF-7
# Method: as §1, §3
# [9] = tested on: CYP1A2 mRNA expression; assay: RT-qPCR CYP1A2 mRNA, MCF-7; conditions: Fig. 2a; for CYP1A2 mRNA expression vs vehicle control: 24 h, E2 1 µM
# Method: as §1, §2
# [10] = tested on: CYP1A1; assay: RT-qPCR CYP1A1 mRNA, MDA-MB-231; format: cell-based, human; conditions: data not shown
# Method: as §1, §2
# [11] = tested on: MDA-MB-231 cells; assay: Micronucleus (MN) assay, MDA-MB-231
# Method: as §1, §3
# [12] = tested on: CYP1B1 mRNA expression; assay: RT-qPCR CYP1B1 mRNA, MCF-7
# Method: as §1, §2
# [13] = tested on: intracellular ROS in MCF-7 cells; assay: ROS assay (carboxy-DCF-DA), MCF-7; format: cell-based, human; conditions: for intracellular ROS levels: ethanol 50 mM or PhIP 100 µM alone, Fig. 6c
# Method: STAT3 inhibitor was dissolved in DMSO.
# Production of reactive oxygen species (ROS) was measured using 2′,7′–dichlorofluorescein diacetate method. Carboxy-2′,7′-dichlorofluorescein diacetate (carboxy-DCF-DA) is taken up by viable cells and cleaved by endogenous esterases to the nonfluorescent derivative, reduced carboxy-dichlorofluorescein (carboxy-DCFH). This product is retained in the cytosol where it can be oxidized by intracellular ROS to the highly fluorescent product, oxidised carboxy-dichlorofluorescein (carboxy-DCF). The intensity of fluorescence is proportional to intracellular ROS levels. MCF-7 cells (2 × 10^4/well) were seeded into 24-well plates in 1% FBS and allowed to attach overnight. Cells were treated with PhIP for 24 h and then treated with Carboxy-DCFDA (20 µL, 30 µM) in media containing 1% FBS (1 ml) and incubated for 30 min at 37 °C, washed with PBS and new media (1% FBS) was added. Fluorescent measurements (excitation at 485 nm and emission at 520 nm) were then taken from 10 min to 24 h using a fluorescence plate reader (BMG POLARstar Galaxy Labtech, Ortenberg, Germany). The concentration of DMSO (0.2%) was identical in all treatments and had no effect on ROS production at this concentration.
# [14] = tested on: JAK2 mRNA expression; assay: qPCR JAK2 mRNA, MCF-7; format: cell-based, human; conditions: PhIP-treated, Fig. 3b
# Method: as §1, §2
# [15] = tested on: miR378 expression; assay: qPCR miR378, MCF-7; format: cell-based, human; conditions: 24 h PhIP treatment, Fig. 3b
# Method: as §1, §2
# [16] = tested on: MCF-7 cells; assay: Cytotoxicity (cell counting, TrypanBlue exclusion), MCF-7; conditions: for change in cell survival following treatment: Fig. 1a
# Method: as §1, §3
# [17] = tested on: intracellular ROS in MCF-7 cells; set-up: method as in Li et al. [2013]; Martinez-Outschoorn et al. [2010]; conditions: NAC 10 mM, ref Li et al. [2013], Martinez-Outschoorn et al. [2010]; cited from earlier work
# [18] = PhIP 100 nM, three independent cultures
# [19] = etoposide positive control (1.25 µM)
smiles,measurement,setting,value
"Cn1c(N)nc2ncc(-c3ccccc3)cc21 [PhIP, 2-amino-1-methyl-6-phenylimidazo[4,5-b]pyridine]",CYP1A2 mRNA expression vs vehicle control,[1],can induce
same,CYP2E1 mRNA expression,[2],but not in MDA-MB-231 cells
same,change in cell survival following treatment,[3],No significant change
same,Cytotoxicity (percent survival ± SD),[3]; PhIP 100 nM,87.2% ± 0.9
same,Cytotoxicity (percent survival ± SD),[3]; PhIP 1 µM,88.1% ± 0.9
same,Cytotoxicity (percent survival ± SD),[3]; PhIP 10 µM,90.4% ± 4.3
same,Cytotoxicity (percent survival ± SD),[3]; PhIP 100 µM,87.7% ± 1.5
same,CYP1A1 induction,[4],failed to induce
same,STAT3 mRNA expression,"[5]; 24 h PhIP treatment, Fig. 3b",dose-dependent upregulation
same,CYP1B1 mRNA expression vs vehicle control,"[6]; E2 1 µM, Fig. 2d",can induce
same,CYP2E1 mRNA expression,"[7]; PhIP treatment, Fig. 3a",induced CYP2E1 mRNA expression in a dose-dependent manner
same,MN frequency (mean ± SD),[8]; [18],12.8 ± 5.1 MN/1000 cells
same,MN frequency (mean ± SD),[8]; PhIP 1 µM,22.3 ± 2.6 MN/1000 cells
same,MN frequency (mean ± SD),[8]; PhIP 10 µM,29.2 ± 3.4 MN/1000 cells
same,MN frequency (mean ± SD),[8]; PhIP 100 µM,49 ± 3.5 MN/1000 cells
same,CYP1A2 mRNA expression vs vehicle control,[9],can induce
same,CYP1A1 induction,[10],failed to induce
same,MN frequency (mean ± SD),[11]; PhIP 100 nM,3.2 ± 2.5 MN/1000 cells
same,MN frequency (mean ± SD),[11]; PhIP 1 µM,4.7 ± 1.8 MN/1000 cells
same,MN frequency (mean ± SD),[11]; PhIP 10 µM,9 ± 0.9 MN/1000 cells
same,MN frequency (mean ± SD),[11]; PhIP 100 µM,13.7 ± 1.3 MN/1000 cells
same,CYP1B1 mRNA expression vs vehicle control,"[12]; MCF-7, 24 h, E2 1 µM, Fig. 2b",can induce
same,CYP1B1 induction in MCF-7 compared to MDA-MB-231 cells,"[12]; PhIP, Fig. 2",higher
same,ROS levels,"[13]; PhIP 24 h, pronounced over the first 60 min, Fig. 5a",dose-dependent increase
same,intracellular ROS levels,[13],Elevated
same,JAK2 mRNA expression,[14],dose-dependent increase
same,miR378 expression,[15],no change
same,change in cell survival following treatment,[16],No significant change
same,Cytotoxicity (percent survival ± SD),[16]; [18],86% ± 2.4
same,Cytotoxicity (percent survival ± SD),[16]; PhIP 1 µM,85.6% ± 2.4
same,Cytotoxicity (percent survival ± SD),[16]; PhIP 10 µM,85.8% ± 2.6
same,Cytotoxicity (percent survival ± SD),[16]; PhIP 100 µM,82.7% ± 1.7
CCO [ethanol],ethanol concentration at which CYP2E1 increase was significant,[7]; Fig. 6a,50 to 100 mM
same,CYP2E1 expression,"[7]; ethanol 10 to 100 mM, Fig. 6a",dose-dependent increase
same,effect of addition of ethanol on genotoxicity of etoposide,[8]; Fig. 7b,No change
same,MN induction,"[8]; ethanol 50 mM, 24 h, Fig. 7b",did not significantly induce
same,intracellular ROS levels,[13],Elevated
"CC(=O)N[C@@H](CS)C(=O)O [NAC, N-acetyl-cysteine, reference compound]",accumulation of ROS,[17],abolish
same,effect of NAC on genotoxicity of etoposide,"[8]; NAC 10 mM, Fig. 7e",little effect
same,effect of NAC on genotoxicity of PhIP plus ethanol,"[8]; NAC 10 mM, p = 0.01, Fig. 7e",decreased the genotoxicity of PhIP plus ethanol significantly
same,effect of NAC on ethanol-induced ROS production,"[13]; ethanol 50 mM plus NAC 10 mM, Fig. 7c",clear decrease
same,effect of NAC on cell survival,"[16]; ethanol 50 mM and PhIP 100 µM with NAC 10 mM, Fig. 7d",did not affect
"C[C@]12CC[C@@H]3c4ccc(O)cc4C[C@@H](CCCCCCCCC[S+]([O-])CCCC(F)(F)C(F)(F)F)[C@H]3[C@@H]1CC[C@@H]2O (stereo partly shown) [ICI, Fulvestrant, reference compound]",effect of ICI on PhIP upregulation of CYP1A2 mRNA,[1],unaffected
same,effect of ICI on PhIP-mediated STAT3 increase,"[5]; co-treatment with PhIP, Fig. 4b",inhibited
same,effect of concurrent ICI on PhIP-mediated induction of CYP1B1,[6],in MCF-7 cells only
same,effect of ICI on CYP2E1 expression (PhIP co-treatment),"[7]; ICI 182,780 1 µM, Fig. 4c",significantly blocked
same,effect of ICI co-incubation on MN induction by etoposide,[8]; Fig. 1,not affected
same,effect of ICI on E2-mediated genotoxicity,[8]; Fig. 1,attenuated
same,effect of ICI co-treatment on PhIP MN formation,"[8]; p < 0.001, Fig. 1c",significantly attenuated
same,effect of ICI on PhIP upregulation of CYP1A2 mRNA,[9],unaffected
same,effect of ICI co-incubation on MN induction by etoposide,[11]; Fig. 1,not affected
same,effect of ER antagonist (ICI) on DNA damaging ability of PhIP,[11]; Fig. 1d,no change
same,effect of concurrent ICI on PhIP-mediated induction of CYP1B1,"[12]; MCF-7, 24 h, p = 0.05",significantly inhibited
same,effect of ICI co-treatment on E2-upregulated CYP1B1 expression,"[12]; MCF-7, E2 1 µM, Fig. 2b",attenuated significantly
"C1=Cc2nc1cc1ccc([nH]1)c(-c1ccccc1)c1nc(cc3ccc([nH]3)c2-c2ccccc2)C=C1 [STAT3 inhibitor, 5, 15 diphenylporphyrin, reference compound]",effect of STAT3 inhibitor on CYP2E1 mRNA upregulation by PhIP,"[7]; inhibitor 25 µM co-treated with PhIP 24 h, Fig. 4a",completely abolished
same,effect of STAT3 inhibitor on H2O2-induced ROS,[13]; Fig. 5b,failed to attenuate
same,effect of STAT3 inhibitor on ROS production by PhIP,"[13]; PhIP 100 µM 24 h, inhibitor 25 µM, Fig. 5b",significantly reduced
"C[C@]12CC[C@@H]3c4ccc(O)cc4CC[C@H]3[C@@H]1CC[C@@H]2O [E2, Estradiol]",CYP1A2 mRNA expression vs vehicle control,[1],No significant change
same,change in cell survival following treatment,[3],No significant change
same,CYP1A2 mRNA expression vs vehicle control,[9],No significant change
same,CYP1B1 mRNA expression vs vehicle control,"[12]; MCF-7, 24 h, E2 1 µM, Fig. 2b",upregulated
same,change in cell survival following treatment,[16],No significant change
"COc1cc([C@@H]2c3cc4c(cc3[C@@H](O[C@@H]3O[C@@H]5CO[C@@H](C)O[C@H]5[C@H](O)[C@H]3O)[C@H]3COC(=O)[C@H]23)OCO4)cc(OC)c1O [Etoposide, reference compound]",Cytotoxicity (percent survival ± SD),[3]; [19],83.7% ± 2.3
same,Cytotoxicity (percent survival ± SD),[16]; [19],81.7% ±1.4
